Data on 89 compounds can be found in a melting point compilation (Tetko et al.; mined from patent text by program, amines drawn as free bases though some values may be those of a salt).

A value given as a limit tells only on which side of the number the result lay.

In general, melting point refers to the temperature, or range, at which the solid turns liquid. In turn, `O=C(NC(=S)Nc1cc(Cl)cc(C(F)(F)F)c1Cl)c1c(F)cccc1F` came in with a melting point of 136 to 141 °C.

Compound `O=C1c2ccccc2SC(O)(c2ccccc2)C2CCCN12` (centres undefined) registered a melting point of 137 to 141 °C.

`Nc1ccc(C(=O)c2cccc(N)c2)cc1` came in with a melting point of 121 to 123 °C.

In the case of `CC1=Cc2cccc(S(N)(=O)=O)c2OS1(=O)=O`, the melting point fell in the range of 204 to 205 °C.

In the case of `O=C(NN=Cc1ccnc2ccccc12)c1cccnc1`, the melting point was determined as 99.6 °C.

Compound `C=C(C)CC(O)(C(Nc1ccc(F)c2nc(C)ncc12)c1ccc(Cl)cc1OC)C(F)(F)F` (centres undefined) registered a melting point of 110 °C.

With `CCCCCCn1c(=O)c2cn(CC)nc2n(C)c1=O`, the melting point is 107 to 108 °C.

For `S=c1[nH]ccn1CCc1cccs1`, the melting point was in the range of 131 to 134 °C.

With `O=C1c2ccccc2-n2cnc(Cl)c2[C@@H]2CCCN12`, the melting point is 233 to 234 °C.

In turn, `Cc1ccc(C(=O)O)c(Nc2ccc3cn[nH]c3c2)n1` returned a melting point of 273 to 274 °C.

For `CCCCCCCCCCCC[C@]1(C)OO[C@@H]2C[C@H]1CC(=O)[C@@H]2C`, the melting point amounted to 35 °C.

`COC(=O)c1ccc(-c2ccc(-c3ccc4c(c3)C(C)(C)CCC4(C)C)n2C)cc1` registered a melting point of 104 to 105 °C.

`CCC#COc1ccc(S(=O)(=O)NC(CSC)C(=O)NO)cc1` (centres undefined) showed a melting point of 128 to 130 °C.

`Cc1c(C#N)c(O)cc2nc(Cc3ccccc3)nn12` returned a melting point of 319 to 320 °C.

Compound `NNCCCS(=O)(=O)O` had a melting point of 147 to 148 °C.

In the case of `CS(=O)(=O)Nc1ccc(CCN2CCN(c3ccc(NS(C)(=O)=O)c(F)c3)CC2)cc1`, the melting point is 232 to 234 °C.

For the compound `Cc1nccn1-c1nc(-c2ccc(Cl)cc2)c(CCC(=O)O)o1`, the melting point lay in the range of 195 to 197 °C.

`Cc1cn(C2CC(F)C(CO)O2)c(=S)[nH]c1=S` (centres undefined) registered a melting point of 164 to 165 °C.

For `CCOC(=O)c1nn(-c2ccc([N+](=O)[O-])cc2)c2c1CCCC2`, the melting point was determined as 173 °C.

For `CCSc1c(O[C@H]2CC[C@H](N)CC2)ccc2[nH]ncc12`, the melting point is 157 to 158 °C.

`CC(=O)NNc1nc(C(F)(F)F)nc(-c2ccc(S(C)(=O)=O)cc2)c1-c1ccccc1` came in with a melting point of 265 to 268 °C.

With `CC1CC2=C(Cc3ccccc32)C([Si](C)(C)C2CC(C)CC3=C2Cc2ccccc23)C1` (centres undefined), the melting point was 179 to 180 °C.

For the compound `NS(=O)(=O)c1ccccc1CSC1=NCCS1`, the melting point lay within 123 to 125 °C.

Take `CC(C(=O)n1c(=O)oc2ccccc21)C(O)C(C)(C)C` (centres undefined): the melting point was in the range of 90 to 92 °C.

Regarding `CCOC(=O)/C=C/[C@H]1CC[C@H](c2ccc(C#N)cc2)CC1`, the melting point came out at 125 °C.

With `CCCc1nn(-c2ccc(C(F)(F)F)cn2)cc1CCCOc1cc(CCC(=O)O)cc(OC)c1`, the melting point lay in the range of 98 to 99 °C.

As to `OC(CCc1ccc2ccccc2c1)Cn1ccnc1` (centres undefined), the melting point lay within 122 to 124 °C.

`O=C(O)Cc1c([N+](=O)[O-])cc(O)c(O)c1[N+](=O)[O-]` gave a melting point of 178 to 184 °C.

In turn, `CC1(C(=O)C(N)=O)CC1(Cl)Cl` (centres undefined) gave a melting point of 92 to 93 °C.

With `COCCNC(=O)c1ccc(C(=O)NS(=O)(=O)c2ccc(CCNC(=O)CCc3ccc(OC)c(OC)c3)cc2)cn1`, the melting point was 87 to 89 °C.

As to `CC(C)CP1C(O)C(O)P(CC(C)C)C(O)C1O` (centres undefined), the melting point is 173 to 175 °C.

For the compound `FC(F)C(F)(F)Sc1nc(-c2ccco2)c(-c2ccco2)[nH]1`, the melting point lay within 166 to 167 °C.

As to `N#Cc1ccc(N2CCCCC2)c2ccsc12`, the melting point lay in the range of 99 to 100 °C.

The compound `CN(c1cccc2cc(C3=NCC(CN4CCSCC4)S3)[nH]c12)S(=O)(=O)c1ccccn1` (centres undefined) showed a melting point of 142 to 144 °C.

In turn, `COCC(=O)Nc1cccc2c1C(=O)N(C1(C)CCC(=O)NC1=O)C2=O` (centres undefined) showed a melting point of 244 to 246 °C.

With `CC(=O)N[C@H]1c2cc(C#N)ccc2OC(C)(C)[C@H]1O` (relative stereo), the melting point lay within 193 to 194 °C.

In turn, `Cc1cccc(C(=O)NNC(=O)c2ccccc2Cc2ccccc2)c1` gave a melting point of 149 to 150 °C.

The compound `COc1ccc(-c2ccc3ccc(NC(=O)c4ccccc4)nc3n2)cc1` showed a melting point of 185 to 187 °C.

For `N#Cc1cccnc1N1CCN(CC(=O)Nc2cccc(C(F)(F)F)c2)CC1`, the melting point lay within 157 to 158 °C.

Compound `COC(=O)C=Cc1ccc(F)cc1` showed a melting point of 43 to 46 °C.

Compound `CCCCc1nn(-c2ccc(C(F)(F)F)cn2)cc1/C=C/C(=O)OCC` yielded a melting point of 84 to 85 °C.

The compound `CC(=O)O[C@@H]1[C@@H](OC(C)=O)[C@H](C)O[C@@H](OC[C@H]2O[C@H](Br)[C@H](OC(C)=O)[C@@H](OC(C)=O)[C@@H]2OC(C)=O)[C@@H]1OC(C)=O` returned a melting point of 120 to 125 °C.

In turn, `CCOC(=O)c1cc(C(=O)c2cccc(S(=O)(=O)F)c2)sc1NC(=O)OCC(Cl)(Cl)Cl` had a melting point of 108 to 110 °C.

For `N#Cc1cc(Br)c(NC(=O)NC(=O)c2c(F)cccc2F)cc1Cl`, the melting point came out at 247 °C.

For `Cc1nnsc1C(=O)NS(=O)(=O)c1ccc(Cl)cc1`, the melting point came out at 165 °C.

`Nc1cccc(C(F)(F)C(F)(F)C(F)(F)C(F)(F)C(F)(F)C(F)(F)C(F)(F)C(F)(F)F)c1` gave a melting point of 35.5 to 36 °C.

Compound `CCNC1=NS(=O)(=O)c2cccc(F)c21` displayed a melting point of 236 to 238 °C.

The compound `CCC(CC)NC(=O)c1ccc(-c2scc(-c3ccccc3Cl)c2CC(=O)O)cc1` showed a melting point of 101 to 103 °C.

Turning to `COC(=O)c1ccc(Cc2cccc3ccc(C(=O)NCC(C)C)cc23)c(OC)c1`, the melting point was in the range of 174 to 175 °C.

Regarding `O=C(NC(Cc1ccccc1)C(=O)O)OCC1c2c(c3ccccc3c3ccccc23)-c2c1c1ccccc1c1ccccc21` (centres undefined), the melting point fell in the range of 137 to 140 °C.

In turn, `CCOc1ccc(N=Cc2cc(OC)c(OC)c(OC)c2)cc1` yielded a melting point of 75 to 77 °C.

With `COc1cccc(-c2cc3c4ccccc4ccn3n2)c1`, the melting point lay within 109 to 111 °C.

Consider `CC(O)C#Cc1cccc(NC(=O)Nc2ncc(C(C)C)s2)c1` (centres undefined), for which the melting point lay in the range of 71 to 73 °C.

Turning to `Cc1ccc(S(=O)(=O)NN=CC(=O)Cl)cc1`, the melting point is 100 to 110 °C.

For `[N-]=[N+]=Nc1ccc(Cl)cc1C(=O)c1ccccc1`, the melting point is 81 to 83 °C.

`C=CCn1c(C)c(C)c2cnnc(OCc3ccccc3)c21` had a melting point of 115 to 116 °C.

As to `Cc1c(-n2cnc3c(-c4ccccc4)cc(F)cc32)nc2ccc(F)cc2c1C(=O)O`, the melting point fell in the range of 208 to 210 °C.

The compound `C=CCN1CCN(C(C#CSc2ccccc2)=Nc2ccc(OC)cc2)CC1` yielded a melting point of 75 °C.

Compound `O=C(O)CC1COc2ccccc2O1` (centres undefined) yielded a melting point of 95 °C.

Compound `Clc1ccc2ccc(COc3ccc(CN4CCc5cccc(CCc6nnn[nH]6)c54)cc3)nc2c1` yielded a melting point of 69 to 73 °C.

As for `Nc1ccc(Oc2ccccc2)cc1SC(c1ccc2c(c1)OCO2)C(O)C(=O)O` (centres undefined), the melting point was in the range of 158 to 159 °C.

The compound `CCCCCc1c(C(C)C)nc(C(C)C)c(CO)c1-c1ccoc1` yielded a melting point of 98 to 100 °C.

Regarding `O=c1ccn(-c2cccc(C(F)(F)F)c2)nc1-c1ccnn1-c1ccccn1`, the melting point lay within 189 to 190 °C.

`c1ccc2c(c1)nnn2C(n1nnc2ccccc21)n1nnc2ccccc21`: the melting point fell in the range of 194 to 195 °C.

Consider `O=[N+]([O-])OCC#CCO`, for which the melting point lay within 107 to 110 °C.

Compound `Cc1cc(N)c2nccc(Cl)c2c1` registered a melting point of 115 to 116 °C.

Compound `CNC(=NC#N)NCc1c(C)cc(C)c(CNC(=NC#N)NC)c1C` gave a melting point of 270 to 272 °C.

The compound `CCCn1c(=Nc2ccccc2)sc2ncccc2c1=O` returned a melting point of 94 to 95 °C.

`Cc1nc(N)nc(C)c1Br`: the melting point was 183 to 185 °C.

The compound `CSc1c(CC(=O)O)ccc2c3ccccc3n(Cc3ccccc3)c12` showed a melting point of 182 to 183 °C.

`O=C(CCCCN1CCOCC1)c1ccc2c(c1)C(=O)c1cc(C(=O)CCCCN3CCOCC3)ccc1-2` had a melting point of 146 to 148 °C.

In turn, `COc1cc(C(=O)O)ccc1Cc1nn(C)c2ccc(NC(=O)OC3CCCC3)cc12` returned a melting point of 216 to 217 °C.

Regarding `O=c1c2ccccc2c(-c2ccccc2)cn1CCCN1CCCCC1`, the melting point was determined as 118 °C.

The compound `COC(=O)CCCc1cc2nc(Cl)ccc2n1S(=O)(=O)c1cccc(C(C)C)c1` returned a melting point of 92 °C.

Turning to `CCCCCCCCCCCCCCCCCC(O)c1ccc(C(=O)O)c(Cl)c1` (centres undefined), the melting point is 93 to 96 °C.

With `CCCCCC(=O)Oc1ccc(-c2ccc(C#N)cc2)cc1`, the melting point is 56.1 °C.

Turning to `CNC(=O)NCCCCc1cccc(OC)c1`, the melting point lay within 74 to 75.5 °C.

`O=C1c2ccccc2C(=O)N1OC/C=C/C=C/c1ccc(F)cc1`: the melting point fell in the range of 155 to 157 °C.

As to `Fc1ccc2[nH]cc(C3=CCN(CC4CCc5ccccc5O4)CC3)c2c1` (centres undefined), the melting point is 172 to 175 °C.

As to `COC(=O)c1sc2ccc(NC(C)=O)cc2c1N`, the melting point is 248 °C.

`CN1C(=O)N(c2c(Cl)cccc2Cl)Cc2cnc(NCc3ccc(CN)cc3)nc21`: the melting point is 151 to 152 °C.

Compound `O=C1NCCCc2cc(OCCCN3CCN(Cc4ccc5ccccc5n4)CC3)ccc21` came in with a melting point of 161 to 162 °C.

As to `O=C(NCc1ccccc1Cl)c1ccc2cnccc2n1`, the melting point is 120 to 121 °C.

In turn, `OC(c1cccc(-c2nnc(Nc3ccc(Cl)c(Cl)c3)s2)c1)c1cccc(C(F)(F)F)c1` (centres undefined) gave a melting point of 191 to 192 °C.

For the compound `O=C(O)c1cnc(C(F)(F)F)nc1C(F)(F)F`, the melting point amounted to 59 °C.

`CC(C)C(=O)NCc1ccc(-c2csc(N=C(N)N)n2)o1`: the melting point is 211 to 213 °C.

As for `Cc1nc2c(c(=O)[nH]1)-c1cc(S(=O)(=O)Nc3ccc([N+](=O)[O-])cc3)ccc1CC2`, the melting point is above 240 °C.

In turn, `CN(Cc1ccccc1)C(=O)Cn1nc(-c2ccccc2O)nc1-c1ccccc1O` had a melting point of 179 to 180 °C.

As for `CONc1nc(N)nc2c1ncn2[C@@H]1C[C@H](CO)[C@@H](O)[C@H]1O`, the melting point fell in the range of 106 to 110 °C.
